Patent US20190353647A1, “NOVEL REAL-TIME MULTIPLEXED, MULTI-COLOR BIOLUMINESCENCE RESONANCE ENERGY TRANSFER ASSAY, APPARATUS, AND USES THEREOF” (Universite de Bordeaux, priority 2016, published 2019)

Columns and labels:
Format in all cases: cell-based
TRPV1 [1] = target: T1, TRPV1 (Homo sapiens, UniProt Q8NER1); experiment: Calcium assay in transfected HEK293T cells; conditions: cells expressing TRPV1, YFP-TRPV1-Luc or TRPV1-Luc; not in mock-transfected cells
T1 construct: expressed in transfected cells; host or cells: HEK293T
Procedure: TRP channel activation was evaluated in transfected HEK293T human embryonic-kidney cells. […] For this purpose, we measured calcium entry in mock-transfected or transfected HEK293T cells with either native TRPV1 or the BRET constructs, YFP-TRPV1-Luc or TRPV1-Luc.

TRPV1 [2] = target: T1, TRPV1; experiment: Three-color spectral BRET, TRPV1-Luc/mAmetrine-CaM component in mixed HEK293T cells; conditions: 20 μM CAPS injected at 75 seconds, real time, mixed cell population
Excerpt: Using the LabView programming language (National Instruments, Austin, Tex., USA), an interface was developed to run the acquisition of the bioluminescent spectra and perform real-time spectral decomposition of the BRET signal into its various components. The experimental emission spectra of Luc, YFP, mAmetrine, aquamarine, and Lss-mOrange were first obtained experimentally using a Cary Eclipse Fluorimeter (Agilent Technology, Santa Clara, Calif., USA) (FIG. 3). Each spectrum was then fitted as a sum of Gaussian curves based on Eq.3.: […]

TRPV3 = target: T2, TRPV3 (Homo sapiens, UniProt Q8NET8); experiment: Three-color spectral BRET, Luc-TRPV3/aquamarine-CaM component in mixed HEK293T cells; set-up: expressed in transfected cells; host or cells: HEK293T (mixed with two other transfected populations); conditions: one mM Drofenine injected at 75 seconds, real time, mixed cell population
T2 sequence (Q8NET8 1-790): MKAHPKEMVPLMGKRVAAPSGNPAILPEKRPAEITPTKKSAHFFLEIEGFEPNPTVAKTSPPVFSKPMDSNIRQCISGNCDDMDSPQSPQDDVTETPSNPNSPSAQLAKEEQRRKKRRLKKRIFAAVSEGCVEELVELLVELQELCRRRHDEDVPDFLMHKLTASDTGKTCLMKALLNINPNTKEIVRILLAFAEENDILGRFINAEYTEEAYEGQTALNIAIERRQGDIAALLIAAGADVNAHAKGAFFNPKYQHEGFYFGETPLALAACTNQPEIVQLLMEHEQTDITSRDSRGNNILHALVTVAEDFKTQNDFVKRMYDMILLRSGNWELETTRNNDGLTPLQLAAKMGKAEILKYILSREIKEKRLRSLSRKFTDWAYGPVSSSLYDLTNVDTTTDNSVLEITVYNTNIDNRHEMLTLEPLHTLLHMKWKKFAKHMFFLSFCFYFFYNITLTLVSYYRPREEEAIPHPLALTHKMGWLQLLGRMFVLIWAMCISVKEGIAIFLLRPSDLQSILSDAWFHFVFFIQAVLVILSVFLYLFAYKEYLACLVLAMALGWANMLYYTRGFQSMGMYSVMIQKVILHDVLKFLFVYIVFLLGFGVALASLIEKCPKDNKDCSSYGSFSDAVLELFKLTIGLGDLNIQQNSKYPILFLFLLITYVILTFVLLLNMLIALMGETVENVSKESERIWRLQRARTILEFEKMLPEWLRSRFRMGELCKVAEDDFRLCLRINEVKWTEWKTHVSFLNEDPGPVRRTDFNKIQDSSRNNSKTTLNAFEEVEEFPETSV
Excerpt: (§1) FIG. 2: Multiplexing measurements of TRPV activity using multicolor BRET. (A) Example of a three-color BRET spectrum and its decomposition, measured in a coculture containing three HEK293T subpopulations transfected with aquamarine-Luc, mAmetrine-Luc, or LSSmOrange-Luc. The grey dots represent the experimental data. Black, light grey, medium grey, and grey solid lines represent the spectral components of Luc, aquamarine, mAmetrine, and LSSmOrange, respectively. […] Results represent the mean of three independent experiments.
(§2) Full BRET spectra were acquired using an optical fiber linked to a Spectra Pro 2300i spectrometer, equipped with a liquid-nitrogen-cooled CCD camera for recording the full visible spectrum (Acton Optics, Acton, Mass., USA). The bioluminescent signal was recorded from transfected cells seeded onto a glass coverslip and placed into a white opaque measurement chamber made of Teflon® and containing an isotonic solution (NaCl 145 mM, KCl 5 mM, KH2PO4 4 mM, CaCl2 1 mM, MgSO4 1 mM, Glucose 10 mM). The temperature of the cell buffer was regulated using an Eppendorf® ThermoStat Plus and measured in real time using a fiber-optic temperature measurement Luxtron 812 system (Lumasense technologies, Santa Clara, Calif., USA). […]

TRPV4 = TRPV4 (Homo sapiens, UniProt Q9HBA0); experiment: Three-color spectral BRET, TRPV4-Luc/LSSmOrange-CaM component in mixed HEK293T cells; set-up: expressed in transfected cells; host or cells: HEK293T (mixed with two other transfected populations); conditions: 100 nM GSK101 injected at 75 seconds, real time, mixed cell population
Excerpt: as §1, §2

T1 sequence (Q8NER1 whole entry): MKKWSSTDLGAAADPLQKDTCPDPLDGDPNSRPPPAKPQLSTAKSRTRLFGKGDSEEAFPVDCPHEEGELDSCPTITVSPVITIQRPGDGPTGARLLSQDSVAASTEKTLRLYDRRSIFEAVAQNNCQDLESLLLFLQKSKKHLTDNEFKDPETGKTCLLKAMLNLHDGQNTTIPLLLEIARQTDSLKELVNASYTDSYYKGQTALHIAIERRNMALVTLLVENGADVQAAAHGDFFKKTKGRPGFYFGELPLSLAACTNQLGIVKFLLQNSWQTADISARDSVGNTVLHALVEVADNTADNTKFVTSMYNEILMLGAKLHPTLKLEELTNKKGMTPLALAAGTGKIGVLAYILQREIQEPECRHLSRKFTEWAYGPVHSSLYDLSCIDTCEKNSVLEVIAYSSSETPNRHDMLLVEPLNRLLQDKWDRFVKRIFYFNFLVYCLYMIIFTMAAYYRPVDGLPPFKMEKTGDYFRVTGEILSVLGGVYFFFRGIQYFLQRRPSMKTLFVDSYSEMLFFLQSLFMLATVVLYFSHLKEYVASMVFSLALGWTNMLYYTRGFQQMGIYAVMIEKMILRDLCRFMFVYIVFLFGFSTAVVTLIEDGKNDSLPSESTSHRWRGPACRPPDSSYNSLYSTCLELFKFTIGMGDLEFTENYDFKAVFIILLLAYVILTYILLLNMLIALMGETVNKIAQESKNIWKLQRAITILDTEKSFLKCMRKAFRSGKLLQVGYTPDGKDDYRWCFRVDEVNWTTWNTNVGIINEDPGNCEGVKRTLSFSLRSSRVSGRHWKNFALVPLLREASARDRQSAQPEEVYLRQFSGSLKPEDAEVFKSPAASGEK
TRPV4, sequence (Q9HBA0 whole entry): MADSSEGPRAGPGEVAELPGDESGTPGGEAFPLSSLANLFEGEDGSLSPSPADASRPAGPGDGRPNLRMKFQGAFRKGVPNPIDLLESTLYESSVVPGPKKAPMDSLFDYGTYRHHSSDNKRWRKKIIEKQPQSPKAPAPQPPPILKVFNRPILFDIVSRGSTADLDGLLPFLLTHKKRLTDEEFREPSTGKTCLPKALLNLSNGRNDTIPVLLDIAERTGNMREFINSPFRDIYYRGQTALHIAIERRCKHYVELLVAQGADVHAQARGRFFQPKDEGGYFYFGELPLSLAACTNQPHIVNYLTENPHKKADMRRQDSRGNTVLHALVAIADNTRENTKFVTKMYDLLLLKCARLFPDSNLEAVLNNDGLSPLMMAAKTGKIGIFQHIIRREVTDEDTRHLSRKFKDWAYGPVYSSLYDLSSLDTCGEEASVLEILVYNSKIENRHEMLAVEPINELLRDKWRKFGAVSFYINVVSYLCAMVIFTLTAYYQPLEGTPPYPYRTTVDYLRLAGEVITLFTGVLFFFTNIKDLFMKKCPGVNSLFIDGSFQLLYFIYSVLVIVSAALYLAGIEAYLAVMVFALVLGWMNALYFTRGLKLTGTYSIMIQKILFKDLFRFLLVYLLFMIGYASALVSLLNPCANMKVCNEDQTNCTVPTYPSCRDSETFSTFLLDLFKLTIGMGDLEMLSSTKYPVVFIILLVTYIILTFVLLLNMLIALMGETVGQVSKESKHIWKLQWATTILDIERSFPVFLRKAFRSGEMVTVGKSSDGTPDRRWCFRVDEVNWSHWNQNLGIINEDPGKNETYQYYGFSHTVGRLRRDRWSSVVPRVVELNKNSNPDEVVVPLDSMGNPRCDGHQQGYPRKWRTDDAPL

SMILES: COc1cc(CNC(=O)CCCC/C=C/C(C)C)ccc1O [CAPS, Capsaicin]
- Cytosolic calcium concentration (TRPV1 [1]): rapid, maintained increase
- TRPV1 BRET signal in three-color assay (TRPV1 [2]): time-dependent increase

SMILES: CCN(CC)CCOC(=O)C(c1ccccc1)C1CCCCC1 (stereo not shown) [Drofenine]
- TRPV3-related BRET component in three-color assay (TRPV3): increase in only the TRPV3-related BRET component

SMILES: CC(C)C[C@H](NC(=O)c1cc2ccccc2s1)C(=O)N1CCN(C(=O)[C@H](CO)NS(=O)(=O)c2ccc(Cl)cc2Cl)CC1 [GSK1016790A]
- TRPV4 BRET signal in three-color assay (TRPV4): time-dependent increase
